{"source": "patent US11214787B2", "about": "“Modified beta-lactamases and methods and uses related thereto” (priority 2010, dated 2022)", "type": "in vivo", "details": "beagle dogs; single dose ceftriaxone 30 mg/kg i.v., without beta-lactamase", "description": "The capability of Bacillus licheniformis D276N mutant beta-lactamase enzyme to inactivate ceftriaxone (CRO) which has been excreted into the gastrointestinal tract during parenteral therapy was investigated in a dog model. Laboratory beagles of the study have a nipple valve surgically inserted in jejunum approximately 170 cm distal to pylorus enabling collection of samples for the analysis. […] Five beagle dogs were utilized in each experiment.\nThe study was performed as two sequential treatments: In the first treatment (control experiment without beta-lactamase therapy), a single dose of ceftriaxone (30 mg of ceftriaxone (CRO) per kg of body weight which corresponds to about 1 gram dose of CRO in humans) was administered intravenously minutes after the first feeding of the dogs. Jejunal samples were collected at various time points during ten hours. The dogs were fed again five hours and forty minutes after the ceftriaxone administration in order to induce the biliary excretion of ceftriaxone accumulated in gallbladder.\nJejunal chyme samples were immediately freezed and stored at −20° C. to await the analysis. Chyme samples were pretreated with perchloric-citric acid in order to precipitate interfering substances. […] A reverse-phase high-pressure chromatography method with UV detection was used for the quantification of ceftriaxone in supernatants. […]"}
{"smiles": "CO/N=C(\\C(=O)N[C@@H]1C(=O)N2C(C(=O)O)=C(CSc3nc(=O)c(=O)[nH]n3C)CS[C@H]12)c1csc(N)n1", "note": "[ceftriaxone]", "values": [{"measurement": "highest jejunal ceftriaxone concentration", "value": "about 1500 micrograms per gram of jejunal chyme"}, {"measurement": "time of highest jejunal ceftriaxone concentration after injection", "value": 60, "unit": "min"}]}
